Drawing on BindingDB's records for doi:10.7270/Q2736PC9 (Broad Institute, 2010), this text covers EC50 for seven molecules.

For the assay, the target named is T1, Alkanal monooxygenase alpha chain (Vibrio harveyi, UniProt P07740).
T1 sequence (P07740 whole entry): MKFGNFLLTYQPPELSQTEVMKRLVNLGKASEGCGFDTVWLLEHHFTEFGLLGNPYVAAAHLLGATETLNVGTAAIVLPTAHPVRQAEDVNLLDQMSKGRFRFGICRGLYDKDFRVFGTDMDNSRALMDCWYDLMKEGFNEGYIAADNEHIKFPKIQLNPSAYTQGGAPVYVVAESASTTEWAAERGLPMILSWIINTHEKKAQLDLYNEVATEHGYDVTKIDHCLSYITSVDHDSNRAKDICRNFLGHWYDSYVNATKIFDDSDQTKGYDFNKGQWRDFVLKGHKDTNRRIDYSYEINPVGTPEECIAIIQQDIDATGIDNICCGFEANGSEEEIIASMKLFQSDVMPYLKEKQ
The experiment in a line: Vibrio harveyi growth inhibition, dose response, counter-screen for quorum sensing inhibitor project, absorbance (AID 434943). (In general: The purpose of a counterscreen is to sort out artefacts and off-target activity.)
For `COc1cc(NC(=O)CN2C(=O)NC(c3ccccc3)(c3ccccc3)C2=O)cc(OC)c1` [MLS001176525], the concentration giving a half-maximal response (EC50) was more than 160 µM.
The result for `Cc1cccc(NS(=O)(=O)c2ccc(Oc3ccccc3)cc2)n1` [SMR000071466] reads more than 160 µM; that for `CN(C)S(=O)(=O)c1ccc(NC(=S)NC(=O)Cc2ccccc2)cc1` [N-[[4-(dimethylsulfamoyl)phenyl]carbamothioyl]-2-phenyl-ethanamide], more than 160 µM.
The result for `CCCc1ccc(S(=O)(=O)N(C)S(=O)(=O)c2ccc(F)cc2)cc1` [N-(4-fluorophenyl)sulfonyl-N-methyl-4-propylbenzenesulfonamide] reads more than 160 µM; that for `CCc1ccc(S(=O)(=O)Nc2ccc(Br)cn2)cc1` [MLS001211346], more than 160 µM.
As for `C=Cn1c(C(=O)O)ccc1-c1ccc(CC)cc1`, the EC50 was more than 160 µM.
The molecule `Cn1cnc(S(=O)(=O)Nc2ccc(OC(F)(F)F)cc2)c1` [SMR000314513] returned an EC50 of more than 160 µM.

The EC50 is the concentration needed to bring the measured effect to its halfway point. High values mean weaker potency, low ones greater potency.
